Source: US11992494B2, “Cyclopentathiophene carboxamide derivatives as platelet activating factor receptor antagonists” (Boehringer Ingelheim International GmbH, priority 2021, dated 2024)
Like-named read-outs stand apart in the source and are kept apart here.

Assays:
[1] = molecular target: T1, PAFR (Homo sapiens, UniProt P25105); settings: PAFR binding, Miyazawa et al.; cited from earlier work
Target sequence in this assay (P25105 whole entry, species assumed): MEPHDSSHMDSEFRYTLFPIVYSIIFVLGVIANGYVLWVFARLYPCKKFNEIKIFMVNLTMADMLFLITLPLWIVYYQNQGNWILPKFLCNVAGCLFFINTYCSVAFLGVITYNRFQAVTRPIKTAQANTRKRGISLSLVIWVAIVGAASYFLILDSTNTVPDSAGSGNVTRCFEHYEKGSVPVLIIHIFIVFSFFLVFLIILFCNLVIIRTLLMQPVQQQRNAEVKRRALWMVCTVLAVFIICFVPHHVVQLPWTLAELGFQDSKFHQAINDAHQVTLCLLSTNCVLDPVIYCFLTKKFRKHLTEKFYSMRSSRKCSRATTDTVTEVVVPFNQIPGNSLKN

[2] = molecular target: T1, PAFR; settings: cited from earlier work; for Ki: literature values (Weber et al.; EP0368175A1), read-out: PAFR affinity (Ki)
Target sequence in this assay (P25105 whole entry, species assumed): as above

[3] = molecular target: T1, PAFR; assay: cellular HTRF IP1 assay: inhibition of PAFR activation by PAF C-16 ligand (endpoint assay); assay type: cell-based; design: expressed in transfected cells; host or cells: HEK293
Method in brief: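 HEK293 cells overexpressing human PAFR were preincubated with compound (1% DMSO) 90 min at 37°C, then challenged with 11 nM PAF C-16 for 60 min in HBSS/20 mM HEPES pH 7.4/50 mM LiCl/0.1% BSA. IP1 accumulation read by HTRF (665/620 nm emission).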
Target sequence in this assay (P25105 whole entry): as the sequence (P25105 whole entry, species assumed) above

[4] = Evaluation of chemical stability (solution state stress conditions, HPLC); assay type: physicochemical
Method: Evaluation of Chemical Stability Within solution state stability studies the influence of temperature, pH and light exposure are analyzed. Stress conditions are applied in order to get a fast signal of possible chemical decomposition via hydrolytical, oxidative or photodegradative pathways. […] The stressed/stored samples are analysed by a stability indicative chiral or achiral HPLC-method, as appropriate. Degradation studies are used to simulate chemical stability of compounds in the acidic part of the gastrointestinal tract. The compounds of the invention show high chemical stability in acidic aqueous media (pH value ca. 1.2) what makes their application as medical drugs to treat human diseases less restricted and troublesome. […] Compound is dissolved in an HPLC vial in a mixture of acetonitrile/0.1 M aqueous HCl (ratio: 2:3; pH ca. 1.2) to get a concentration of approximately 0.25 mg/ml. The vial is then transferred into an HPLC autosampler system and maintained at the desired temperature of, e.g., 40° C. A first sample is taken and injected immediately into a standard HPLC system with a UV DAD detector. A further sample is injected after 24 hours. Amount of degraded compound is measured by determining the recovery rate of compound [%] for the 24 h injection using an HPLC standard gradient method. Therefore the peak area of the main peak for the first injection (AUt0) is determined and set as 100%. Peak area of the main peak is determined also for the 24 h injection (AU24 h) and expressed as fraction of (AU24 h)/(AUt0)[%]. Analogously, the amount of degraded compound is determined for stability examinations running for more than 1 day, e.g., for 3 days.

[5] = HEK293 cells overexpressing human PAFR, PAF ligand 11 nM, Table 2
[6] = dedicated head-to-head comparison assay run: cyclopropylene vs di-methyl / cyclobutylene analogues
[7] = 40° C., ACN/0.1M aq. HCl (pH ca. 1.2)

Question: Which IC50 [1] does the source give for `C#CCCOC(=O)N1CCc2c(sc3c2C(c2ccccc2Cl)=NC(C)(C)c2nnc(C)n2-3)C1` [compound 23 of Miyazawa et al.] here?
Answer: Its IC50 is 160 nM.

Question: For `Cc1nnc2n1-c1sc3c(c1C(c1ccccc1Cl)=NC2C)CC(C(=O)N1CCOCC1)C3` (single isomer, unassigned; (+)) [(+) 9dB], which Ki [2] is on record?
Answer: Its Ki is 3000 nM.

Question: For `C#CCCOC(=O)N1CCc2c(sc3c2C(c2ccccc2Cl)=NC(C)c2nnc(C)n2-3)C1` (single isomer, unassigned) [compound 35 of Miyazawa et al. (−) isomer], which IC50 [1] is on record?
Answer: Its IC50 is 420 nM.

Question: With `Cc1nnc2n1-c1sc3c(c1C(c1ccccc1Cl)=NC2C)CC(C(=O)N1CCOCC1)C3` (single isomer, unassigned; (+)) [(+) 9dA] as the molecule, how does the Ki [2] read?
Answer: The Ki was 400 nM.

Question: For `Cc1nnc2n1-c1sc(CCC(=O)N3CCOCC3)cc1C(c1ccccc1Cl)=NC2C` (stereo not drawn) [example 1 of EP0368175A1 (−)-enantiomer], which “binding to the PAFR of (−)-enantiomer relative to (+)-enantiomer” value ([2]; see EP0368175A1) is on record?
Answer: Its value is “(−)-enantiomer 35 times stronger binding”.

Question: Which IC50 [1] does the source give for `C#CCCOC(=O)N1CCc2c(sc3c2C(c2ccccc2Cl)=NC(C)c2nnc(C)n2-3)C1` (single isomer, unassigned) [compound 22 of Miyazawa et al. (−) isomer] here?
Answer: Its IC50 is 82 nM.

Question: With `Cc1nnc2n1-c1sc3c(c1C(c1ccccc1Cl)=NC2)CC(C(=O)N1CCOCC1)C3` (racemic) [WEB 2170 (bepafant) racemate] as the molecule, how does the Ki [2] read?
Answer: The Ki was 15 nM.

Question: Which IC50 [1] does the source give for `C#CCCOC(=O)N1CCc2c(sc3c2C(c2ccccc2Cl)=NC(CC)(CC)c2nnc(C)n2-3)C1` [compound 25 of Miyazawa et al.] here?
Answer: Its IC50 is 290 nM.

Question: Which Ki [2] does the source give for `Cc1nnc2n1-c1sc3c(c1C(c1ccccc1Cl)=NC2C)CC(C(=O)N1CCOCC1)C3` (single isomer, unassigned; (-)) [(−) 9dA] here?
Answer: The Ki was 70 nM.

Question: Which results are given for `CCCN(CCC)C(=O)[C@@H]1Cc2sc3c(c2C1)C(c1ccccc1Cl)=NC1(CC1)c1nnc(C)n1-3` [Example 104, (13′S)-9′-(2-chlorophenyl)-3′-methyl-N, N-dipropyl-16′-thia-2′,4′,5′,8′-tetraazaspiro[cyclopropane-1,7′-tetracyclo[8.6.0.0^2,6.0^11,15]hexadecane]-1′(10′),3′,5′,8′,11′(15′)-pentaene-13′-carboxamide]?
Answer: IC50 [3, 5]: 0.9 nM; Amount of degradation after 3 d at 40° C. in ACN/0.1M aq. HCl ([4]; 0.25 mg/ml, pH 1.2): 1.5%

Question: For `Cc1nnc2n1-c1sc3c(c1C(c1ccccc1Cl)=NC2C)CC(C(=O)N1CCOCC1)C3` (single isomer, unassigned; (-)) [(−) 9dB], which Ki [2] is on record?
Answer: Its Ki is 8 nM.

Question: For `C#CCCOC(=O)N1CCc2c(sc3c2C(c2ccccc2Cl)=NC(C)c2nnc(C)n2-3)C1` (racemic) [compound 22 of Miyazawa et al. racemate], which IC50 [1] is on record?
Answer: Its IC50 is 1.5 nM.

Question: With `Cc1nnc2n1-c1sc3c(c1C(c1ccccc1Cl)=NC2)CC(C(=O)N1CCOCC1)C3` (single isomer, unassigned; (-)) [(−)-bepafant] as the molecule, how does the Ki [2] read?
Answer: Its Ki is 14 nM.

Question: What does the source list for `Cc1nnc2n1-c1sc3c(c1C(c1ccccc1Cl)=NC21CC1)C[C@H](C(=O)N[C@@H]1CCC(F)(F)C1)C3` [Example 124]?
Answer: IC50 [3, 5]: 2.4 nM; IC50 [3, 6]: 2.6 nM; Amount of degradation after 3 d at 40° C. in ACN/0.1M aq. HCl [4, 7]: 2.5%

Question: For `Cc1nnc2n1-c1sc3c(c1C(c1ccccc1Cl)=NC2C)CCN(C(=O)OC(C)(C)C#N)C3` (single isomer, unassigned) [compound 34 of Miyazawa et al. (−) isomer], which IC50 [1] is on record?
Answer: The IC50 was 500 nM.

Question: Which IC50 [3, 5] does the source give for `Cc1nnc2n1-c1sc3c(c1C(c1ccccc1Cl)=NC21CC1)C[C@H](C(=O)N1CCOCC1)C3` [Example 114] here?
Answer: Its IC50 is 7.2 nM.

Question: What about the IC50 [3, 6] of the same molecule?
Answer: The IC50 was 6.6 nM.

Question: And the “Amount of degradation after 3 d at 40° C. in ACN/0.1M aq. HCl” value [4, 7]?
Answer: Its value is 4%.

Question: With `C#CCCOC(=O)N1CCc2c(sc3c2C(c2ccccc2Cl)=NC(C)c2nnc(C)n2-3)C1` (single isomer, unassigned) [compound 22 of Miyazawa et al. (+) isomer] as the molecule, how does the IC50 [1] read?
Answer: The IC50 was 0.34 nM.

Question: For `C#CCCOC(=O)N1CCc2c(sc3c2C(c2ccccc2Cl)=NC(C)c2nnc(C)n2-3)C1` (single isomer, unassigned) [compound 35 of Miyazawa et al. (+) isomer], which IC50 [1] is on record?
Answer: The IC50 was 2.8 nM.

Question: With `C#CCCOC(=O)N1CCc2c(sc3c2C(c2ccccc2Cl)=NCc2nnc(C)n2-3)C1` [compound 18 of Miyazawa et al.] as the molecule, how does the IC50 [1] read?
Answer: The IC50 was 3.8 nM.

Question: With `Cc1nnc2n1-c1sc3c(c1C(c1ccccc1Cl)=NC2C)CCN(C(=O)OC(C)(C)C#N)C3` (single isomer, unassigned) [compound 34 of Miyazawa et al. (+) isomer] as the molecule, how does the IC50 [1] read?
Answer: The IC50 was 3.1 nM.

Question: With `Cc1nnc2n1-c1sc3c(c1C(c1ccccc1Cl)=NC2)CC(C(=O)N1CCOCC1)C3` (single isomer, unassigned; (+)) [(+)-bepafant] as the molecule, how does the Ki [2] read?
Answer: Its Ki is 660 nM.

Question: With `Cc1nnc2n1-c1sc3c(c1C(c1ccccc1Cl)=NC21CC1)C[C@H](C(=O)N(C)C1CCC(C)(C)CC1)C3` [Example 79] as the molecule, how does the IC50 [3, 5] read?
Answer: Its IC50 is 0.9 nM.

Question: With `CCCN(C(=O)[C@@H]1Cc2sc3c(c2C1)C(c1ccccc1Cl)=NC1(CC1)c1nnc(C)n1-3)C1CCOCC1` [Example 115, (13′S)-9′-(2-chlorophenyl)-3′-methyl-N-(oxan-4-yl)-N-propyl-16′-thia-2′,4′,5′,8′-tetraazaspiro-[cyclopropane-1,7′-tetracyclo[8.6.0.0^2,6.0^11,15]hexadecane]-1′(10′),3′,5′,8′,11′(15′)-pentaene-13′-carboxamide] as the molecule, how does the IC50 [3, 5] read?
Answer: The IC50 was 25 nM.

Question: With `CC(=O)N1CCC(N(C)C(=O)[C@@H]2Cc3sc4c(c3C2)C(c2ccccc2Cl)=NC2(CC2)c2nnc(C)n2-4)CC1` [Example 73] as the molecule, how does the IC50 [3, 5] read?
Answer: Its IC50 is 21 nM.

Question: For `Cc1nnc2n1-c1sc3c(c1C(c1ccccc1Cl)=NC21CC1)C[C@H](C(=O)N(C)[C@@H]1CCCC[C@@H]1O)C3` [Example 41], which IC50 [3, 5] is on record?
Answer: The IC50 was 3.9 nM.

Question: With `Cc1nnc2n1-c1sc3c(c1C(c1ccccc1Cl)=NC21CC1)C[C@H](C(=O)NC1CCOC(C)(C)C1)C3` (some centres unmarked) [Example 33] as the molecule, how does the IC50 [3, 5] read?
Answer: The IC50 was 11 nM.

Question: With `Cc1nnc2n1-c1sc3c(c1C(c1ccccc1Cl)=NC21CC1)C[C@H](C(=O)N[C@H]1COC[C@H]1C)C3` [Example 28] as the molecule, how does the IC50 [3, 5] read?
Answer: Its IC50 is 6.8 nM.

Question: For `Cc1nnc2n1-c1sc3c(c1C(c1ccccc1Cl)=NC21CC1)C[C@H](C(=O)NC1(c2ccc(Cl)cn2)CC1)C3` [Example 35], which IC50 [3, 5] is on record?
Answer: Its IC50 is 1.6 nM.

Question: With `Cc1nnc2n1-c1sc3c(c1C(c1cc(Cl)ccc1Cl)=NC21CC1)C[C@H](C(=O)N1CCOCC1)C3` [Example 3, (13′S)-9′-(2,5-dichlorophenyl)-3′-methyl-13′-(morpholine-4-carbonyl)-16′-thia-2′,4′,5′,8′-tetraazaspiro[cyclopropane-1,7′-tetracyclo[8.6.0.0^2,6.0^11,15]hexadecane]-1′(10′),3′,5′,8′,11′(15′)-pentaene] as the molecule, how does the IC50 [3, 5] read?
Answer: Its IC50 is 17 nM.

Question: With `Cc1nnc2n1-c1sc3c(c1C(c1ccccc1Cl)=NC21CC1)C[C@H](C(=O)N(C)C1CCS(=O)(=O)C1)C3` (some centres unmarked) [Example 89] as the molecule, how does the IC50 [3, 5] read?
Answer: Its IC50 is 15 nM.

Question: With `Cc1nnc2n1-c1sc3c(c1C(c1ccccc1Cl)=NC21CC1)C[C@H](C(=O)N[C@H]1C[C@H]2OCCC[C@@H]12)C3` [Example 93] as the molecule, how does the IC50 [3, 5] read?
Answer: Its IC50 is 5.2 nM.

Question: For `Cc1nnc2n1-c1sc3c(c1C(c1ccccc1Cl)=NC21CC1)C[C@H](C(=O)N[C@H]1C[C@@H]1C)C3` [Example 12], which IC50 [3, 5] is on record?
Answer: The IC50 was 2.2 nM.

Question: For `Cc1nnc2n1-c1sc3c(c1C(c1ccccc1Cl)=NC21CC1)C[C@H](C(=O)N[C@H]1CCCOC1)C3` [Example 29], which IC50 [3, 5] is on record?
Answer: Its IC50 is 8.4 nM.

Question: Which IC50 [3, 5] does the source give for `Cc1nnc2n1-c1sc3c(c1C(c1ccccc1Cl)=NC21CC1)C[C@H](C(=O)N[C@H]1CC[C@H](C(F)(F)F)CC1)C3` [Example 15] here?
Answer: The IC50 was 1 nM.

Question: Which IC50 [3, 6] does the source give for `Cc1nnc2n1-c1sc3c(c1C(c1ccccc1Cl)=NC2(C)C)C[C@H](C(=O)N(C)[C@H]1CC[C@H](O)CC1)C3` [reference compound] here?
Answer: The IC50 was 87 nM.

Question: For `Cc1nnc2n1-c1sc3c(c1C(c1ccccc1Cl)=NC21CC1)C[C@H](C(=O)NC1(c2ccccc2)CC1)C3` [Example 46], which IC50 [3, 5] is on record?
Answer: The IC50 was 2 nM.

Question: Which IC50 [1] does the source give for `C#CCCOC(=O)N1CCc2c(sc3c2C(c2ccccc2Cl)=NC(CC)c2nnc(C)n2-3)C1` (racemic) [compound 24 of Miyazawa et al. racemate] here?
Answer: The IC50 was 22 nM.

Question: Which IC50 [3, 5] does the source give for `COc1ccccc1C1=NC2(CC2)c2nnc(C)n2-c2sc3c(c21)C[C@H](C(=O)N1CCOCC1)C3` [Example 130, (13′S)-9′-(2-methoxyphenyl)-3′-methyl-13′-(morpholine-4-carbonyl)-16′-thia-2′,4′,5′,8′-tetraazaspiro[cyclopropane-1,7′-tetracyclo[8.6.0.0^2,6.0^11,15]hexadecane]-1′(10′),3′,5′,8′,11′(15′)-pentaene] here?
Answer: The IC50 was 84 nM.

Question: For `Cc1nnc2n1-c1sc3c(c1C(c1ccccc1Cl)=NC21CC1)C[C@H](C(=O)NC1CCCC(F)(F)C1)C3` (some centres unmarked) [Example 25], which IC50 [3, 5] is on record?
Answer: The IC50 was 2.3 nM.
